From paper PMC7203735, “Characterization of an A-Type Muscarinic Acetylcholine Receptor and Its Possible Non-neuronal Role in the Oriental Armyworm, Mythimna separata Walker (Lepidoptera: Noctuidae)” (Frontiers in Physiology, 2020)
Like-named read-outs stand apart in the source and are kept apart here.

Target: T1, Ms A-type mAChR (Ms A-mAChR) (Mythimna separata, UniProt A0A2D1QUJ3)
T1 sequence (A0A2D1QUJ3 1-601): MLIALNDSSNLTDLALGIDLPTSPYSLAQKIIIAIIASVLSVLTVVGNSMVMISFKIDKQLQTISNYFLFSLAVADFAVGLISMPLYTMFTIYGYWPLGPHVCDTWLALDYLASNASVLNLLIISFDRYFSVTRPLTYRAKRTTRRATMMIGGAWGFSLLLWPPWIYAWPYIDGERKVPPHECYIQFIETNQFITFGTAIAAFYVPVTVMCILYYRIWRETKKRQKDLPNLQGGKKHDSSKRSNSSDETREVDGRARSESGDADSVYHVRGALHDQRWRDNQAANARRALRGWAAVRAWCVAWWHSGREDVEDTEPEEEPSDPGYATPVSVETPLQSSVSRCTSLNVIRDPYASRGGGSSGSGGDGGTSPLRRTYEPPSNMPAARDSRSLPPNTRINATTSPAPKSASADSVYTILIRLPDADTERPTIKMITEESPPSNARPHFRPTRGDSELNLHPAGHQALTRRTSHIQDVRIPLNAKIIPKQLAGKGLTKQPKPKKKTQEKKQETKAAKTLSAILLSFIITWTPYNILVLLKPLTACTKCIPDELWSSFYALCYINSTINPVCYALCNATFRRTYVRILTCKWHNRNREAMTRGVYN
Assay: FLIPR calcium mobilization in transfected HEK […] cells
Type: cell-based

| Structure (SMILES) | EC50 [nM] | EC50 (read-out: EC50) [nM] |
| --- | --- | --- |
| C[C@@H]1O[C@H](C[N+](C)(C)C)C[C@H]1O [muscarine] | 388 | – |
| C[N+](C)(C)CCOC(N)=O [carbachol] | – | 125 |
